{"source": "patent US9765087B2", "about": "“Benzimidazole derivatives” (ENANTA PHARMACEUTICALS, INC., priority 2009, dated 2017)"}
{"system": "HCV 1a genotype replicon", "assay": "HCV replicon assay (qRT-PCR or luciferase), genotype 1a", "assay_type": "cell-based", "conditions": "Hepatitis C virus, Table 12, numeric values, read-out: 1a EC50", "description": "(§1) HCV replicon cell lines (kindly provided by R. Bartenschlager) isolated from colonies as described by Lohman et. al. (Lohman et al. (1999) Science 285: 110-113, expressly incorporated by reference in its entirety) and used for all experiments. The HCV replicon has the nucleic acid sequence set forth in EMBL Accession No.: AJ242651, the coding sequence of which is from nucleotides 1801 to 8406.\n(§2) These cell lines were maintained at 37° C., 5% CO2, 100% relative humidity in DMEM (Cat#11965-084, Invitrogen), with 10% fetal calf serum (“FCS”, Invitrogen), 1% non-essential amino acids (Invitrogen), 1% of Glutamax (Invitrogen), 1% of 100× penicillin/streptomycin (Cat#15140-122, Invitrogen) and Geneticin (Cat#10131-027, Invitrogen) at 0.75 mg/ml or 0.5 mg/ml for 11-7 and Huh-luc/neo-ET cells, respectively.\n(§3) EC50 values of single agent compounds and combinations were determined by HCV RNA detection using quantitative RT-PCR, according to the manufacturer's instructions, with a TAQMAN® One-Step RT-PCR Master Mix Reagents Kit (Cat#AB 4309169, Applied Biosystems) on an ABI Model 7500 thermocycler. The TaqMan primers used for detecting and quantifying HCV RNA were obtained from Integrated DNA Technologies. HCV RNA was normalized to GAPDH RNA levels in drug-treated cells, which is detected and quantified using the Human GAPDH Endogenous Control Mix (Applied Biosystems, AB 4310884E). Total cellular RNA is purified from 96-well plates using the RNAqueous 96 kit (Ambion, Cat# AM1812). Chemical agent cytotoxicity is evaluated using an MTS assay according to the manufacturer's directions (Promega).\n(§4) Since clinical drug resistance often develops in viral infections following single agent therapies, there is a need to assess the additive, antagonistic, or synergistic properties of combination therapies. We used the HCV replicon system to assess the potential use of the compound of the present invention or in combination therapies with Interferon alpha, cyclosporine analogs and inhibitors targeting other HCV proteins. The acute effects of a single or combinations of drugs are studied in the “Huh-luc/neo-ET” replicon with each chemical agent titrated in an X or Y direction in a 6 point two-fold dilution curve centered around the EC50 of each drug. Briefly, replicon cells are seeded at 7,000 cells per well in 90 ul DMEM (without phenol red, Invitrogen Cat.#31053-036) per well with 10% FCS, 1% non-essential amino acids, 1% of Glutamax and 1% of 100× penicillin/streptomycin and incubated overnight at 37° C., 5% CO2, 100% relative humidity. 16-20 h after seeding cells, test compounds previously solubilized and titrated in dimethyl sulfoxide (“DMSO”) from each X plate and Y plate are diluted 1:100 in DMEM (without phenol red, Invitrogen Cat.#31053-036) with 10% FCS, 1% non-essential amino acids, 1% of Glutamax and 1% of 100× penicillin/streptomycin and added directly to the 96-well plate containing cells and growth medium at a 1:10 dilution for a final dilution of compound and DMSO of 1:1000 ([…] final concentration). Drug treated cells are incubated at 37° C., 5% CO2, 100% relative humidity for 72 hours before performing a luciferase assay using 100 ul per well BriteLite Plus (Perkin Elmer) according to the manufacturer's instructions. Data analysis utilizes the method published by Prichard and Shipman (Antiviral Research, 1990. 14:181-205). Using this method, the combination data are analyzed for antagonistic, additive, or synergistic combination effects across the entire combination surface created by the diluted compounds in combination.\n(§5) The compounds of the present invention can be effective against the HCV 1b genotype. It should also be understood that the compounds of the present invention can inhibit multiple genotypes of HCV. In one embodiment compound of the present invention are active against the 1a, 1b, 2a, 2b, 3a, 4a, and 5a genotypes. […] EC50 ranges against HCV 1b and 1a are as follows: A>10 nM; B1-10 nM; C<1 nM.", "units": {"EC50": "nM"}}
{"molecule": "COC(=O)N[C@@H](CC(N)=O)C(=O)N1CCC[C@H]1c1ncc(-c2ccc(C#Cc3ccc4nc([C@@H]5CC6(CC6)CN5C(=O)[C@@H](NC(=O)OC)C(C)C)[nH]c4c3)cc2)[nH]1", "note": "[Example 619]", "EC50": 0.699}
{"molecule": "COC(=O)N[C@H](C(=O)N1CC2(CC2)C[C@H]1c1ncc(-c2ccc(C#Cc3ccc4nc([C@@H]5CC6(CC6)CN5C(=O)[C@H](NC(=O)OC)c5cccc(OC)c5)[nH]c4c3)cc2)[nH]1)C(C)C", "note": "[Example 654]", "EC50": 0.185}
{"molecule": "COC(=O)N[C@H](C(=O)N1CC2(CC2)C[C@H]1c1nc2ccc(C#Cc3ccc(-c4cnc([C@@H]5CCCN5C(=O)[C@H](NC(=O)OC)c5cccs5)[nH]4)cc3)cc2[nH]1)C(C)C", "note": "[Example 663]", "EC50": 0.295}
{"molecule": "COC(=O)N[C@H](C(=O)N1CC2(CC2)C[C@H]1c1ncc(-c2ccc(C#Cc3ccc4nc([C@@H]5CC6(CC6)CN5C(=O)[C@@H](NC(=O)OC)C5CCOCC5)[nH]c4c3)cc2)[nH]1)C(C)C", "note": "[Example 590]", "EC50": 0.017}
{"molecule": "COC(=O)N[C@H](C(=O)N1CC2(CC2)C[C@H]1c1nc2ccc(C#Cc3ccc(-c4cnc([C@@H]5CCCN5C(=O)[C@H](NC(=O)OC)c5ccoc5)[nH]4)cc3)cc2[nH]1)C(C)C", "note": "[Example 681]", "EC50": 0.202}
{"molecule": "COC(=O)N[C@H](C(=O)N1CC2(CC2)C[C@H]1c1nc(-c2ccc(C#Cc3ccc4[nH]c([C@@H]5CC6(CC6)CN5C(=O)[C@@H](NC(=O)OC)C(C)C)nc4c3)cc2)c(-c2ccccc2)[nH]1)C(C)C", "note": "[Example 661]", "EC50": 0.369}
{"molecule": "COC(=O)N[C@H](C(=O)N1CC2(CC2)C[C@H]1c1nc(-c2ccc(C#Cc3ccc4[nH]c([C@@H]5C[C@]6(CCCO6)CN5C(=O)[C@@H](NC(=O)OC)C(C)C)nc4c3)cc2)c[nH]1)C(C)C", "note": "[Example 626]", "EC50": 1.34}
{"molecule": "CC[C@H](NC(=O)OC)C(=O)N1CC2(CC2)C[C@H]1c1ncc(-c2ccc(C#Cc3ccc4nc([C@@H]5CC6(CC6)CN5C(=O)[C@H](CC)NC(=O)OC)[nH]c4c3)cc2)[nH]1", "note": "[Example 655]", "EC50": 0.034}
{"system": "HCV 1a genotype replicon", "assay": "HCV replicon assay (qRT-PCR or luciferase), genotype 1a", "assay_type": "cell-based", "conditions": "Hepatitis C virus, Table 12, range class, read-out: 1a EC50 Range", "description": "as §1, §2, §3, §4, §5", "units": {"EC50": "nM"}}
{"molecule": "COC(=O)N[C@H](C(=O)N1CC2(CC2)C[C@H]1c1nc2ccc(C#Cc3ccc(-c4cnc([C@@H]5CCCN5C(=O)[C@H](NC(=O)OC)c5cccc(F)c5)[nH]4)cc3)cc2[nH]1)C(C)C", "note": "[Example 600]", "EC50": "< 1"}
{"molecule": "COC(=O)N[C@H](C(=O)N1CCC[C@H]1c1ncc(-c2ccc(C#Cc3ccc4nc([C@@H]5CC6(CC6)CN5C(=O)[C@@H](NC(=O)OC)C(C)C)[nH]c4c3)cc2)[nH]1)c1ccccc1", "note": "[Example 595]", "EC50": "< 1"}
{"molecule": "COC(=O)N[C@H](C(=O)N1CC2(CC2)C[C@H]1c1nc2ccc(C#Cc3ccc(-c4cnc([C@@H]5CCCN5C(=O)[C@@H](NC(=O)OC)C5CCCCC5)[nH]4)cc3)cc2[nH]1)C(C)C", "note": "[Example 607]", "EC50": "< 1"}
{"molecule": "COC(=O)N[C@H](C(=O)N1CC2(CC2)C[C@H]1c1nc2ccc(C#Cc3ccc(-c4cnc([C@@H]5C[C@H]6C[C@H]6N5C(=O)[C@H](NC(=O)OC)c5cc(F)cc(F)c5)[nH]4)cc3)cc2[nH]1)C(C)C", "note": "[Example 683]", "EC50": "< 1"}
{"molecule": "COC(=O)N[C@H](C(=O)N1CCC[C@H]1c1ncc(-c2ccc(C#Cc3ccc4nc([C@@H]5C[C@@H](C6CC6)CN5C(=O)[C@@H](NC(=O)OC)C(C)C)[nH]c4c3)cc2)[nH]1)C(C)C", "note": "[Example 572]", "EC50": "< 1"}
{"molecule": "COC(=O)N[C@H](C(=O)N1CC2(CC2)C[C@H]1c1nc2ccc(C#Cc3ccc(-c4cnc([C@@H]5CCCN5C(=O)[C@@H](NC(=O)OC)[C@@H](C)c5ccccc5)[nH]4)cc3)cc2[nH]1)C(C)C", "note": "(stereo in doubt) [Example 672]", "EC50": "< 1"}
{"molecule": "COCC(COC)[C@H](NC(=O)OC)C(=O)N1CC2(CC2)C[C@H]1c1nc2ccc(C#Cc3ccc(-c4cnc([C@@H]5CC6(CC6)CN5C(=O)[C@@H](NC(=O)OC)C(C)C)[nH]4)cc3)cc2[nH]1", "note": "[Example 670]", "EC50": "< 1"}
{"molecule": "COC(=O)N[C@H](C(=O)N1CC2(CC2)C[C@H]1c1nc2ccc(C#Cc3ccc(-c4cnc([C@@H]5C[C@@H](C)CN5C(=O)[C@H](NC(=O)OC)c5ccccc5)[nH]4)cc3)cc2[nH]1)C(C)C", "note": "[Example 671]", "EC50": "< 1"}
{"molecule": "COC(=O)N[C@H](C(=O)N1CC2(CC2)C[C@H]1c1nc(-c2ccc(C#Cc3ccc4[nH]c([C@@H]5CC6(CC6)CN5C(=O)[C@@H](NC(=O)OC)C(C)C)nc4c3)cc2)c(Br)[nH]1)C(C)C", "note": "[Example 657]", "EC50": "< 1"}
{"molecule": "COC(=O)N[C@H](C(=O)N1CC2(CC2)C[C@H]1c1ncc(-c2ccc(C#Cc3ccc4nc([C@@H]5CC6(CC6)CN5C(=O)[C@@H](NC(=O)OC)C5CCCCC5)[nH]c4c3)cc2)[nH]1)C(C)C", "note": "[Example 675]", "EC50": "< 1"}
{"molecule": "CC[C@@H](C)[C@H](NC(=O)OC)C(=O)N1CCC[C@H]1c1ncc(-c2ccc(C#Cc3ccc4nc([C@@H]5CC6(CC6)CN5C(=O)[C@@H](NC(=O)OC)C(C)C)[nH]c4c3)cc2)[nH]1", "note": "[Example 605]", "EC50": "< 1"}
{"molecule": "COC(=O)N[C@H](C(=O)N1CC2(CC2)C[C@H]1c1ncc(-c2ccc(C#Cc3ccc4nc([C@@H]5C[C@H]6C[C@H]6N5C(=O)[C@H](NC(=O)OC)c5ccccc5)[nH]c4c3)cc2)[nH]1)C(C)C", "note": "[Example 586]", "EC50": "< 1"}
{"molecule": "COC(=O)N[C@H](C(=O)N1C[C@H](CF)C[C@H]1c1ncc(-c2ccc(C#Cc3ccc4nc([C@@H]5C[C@@]6(CCCO6)CN5C(=O)[C@@H](NC(=O)OC)C(C)C)[nH]c4c3)cc2)[nH]1)C(C)C", "note": "[Example 634]", "EC50": "< 1"}
{"molecule": "COC(=O)N[C@H](C(=O)N1CC2(CC2)C[C@H]1c1nc2ccc(C#Cc3ccc(-c4cnc([C@@H]5CC6(CC6)CN5C(=O)[C@@H](NC(=O)OC)C5CCOCC5)[nH]4)cc3)cc2[nH]1)C(C)C", "note": "[Example 658]", "EC50": "< 1"}
{"molecule": "COC(=O)N[C@H](C(=O)N1CC2(CC2)C[C@H]1c1ncc(-c2ccc(C#Cc3ccc4nc([C@@H]5CC6(CC6)CN5C(=O)[C@H](NC(=O)OC)c5cccs5)[nH]c4c3)cc2)[nH]1)C(C)C", "note": "[Example 582]", "EC50": "< 1"}
{"molecule": "COC(=O)N[C@H](C(=O)N1CC2(CC2)C[C@H]1c1ncc(-c2ccc(C#Cc3ccc4nc([C@@H]5CC6(CC6)CN5C(=O)[C@H](NC(=O)OC)C5CCCC5)[nH]c4c3)cc2)[nH]1)C(C)C", "note": "[Example 599]", "EC50": "1 to 10"}
{"molecule": "COC(=O)N[C@H](C(=O)N1CC2(CC2)C[C@H]1c1nc2ccc(C#Cc3ccc(-c4cnc([C@@H]5CC6(CC6)CN5C(=O)[C@@H](NC(=O)OC)C(C)C)[nH]4)cc3)cc2[nH]1)c1ccccc1", "note": "[Example 592]", "EC50": "< 1"}
{"molecule": "COC(=O)N[C@H](C(=O)N1CC2(CC2)C[C@H]1c1ncc(-c2ccc(C#Cc3ccc4nc([C@@H]5CC6(CC6)CN5C(=O)[C@H](NC(=O)OC)[C@H](C)c5ccccc5)[nH]c4c3)cc2)[nH]1)C(C)C", "note": "[Example 601]", "EC50": "> 10"}
{"molecule": "CC[C@@H](C)[C@H](NC(=O)OC)C(=O)N1CC2(CC2)C[C@H]1c1nc2ccc(C#Cc3ccc(-c4cnc([C@@H]5CC6(CC6)CN5C(=O)[C@@H](NC(=O)OC)C(C)C)[nH]4)cc3)cc2[nH]1", "note": "[Example 656]", "EC50": "< 1"}
{"molecule": "COC(=O)N[C@H](C(=O)N1CC2(CC2)C[C@H]1c1nc2ccc(C#Cc3ccc(-c4cnc([C@@H]5CCCN5C(=O)[C@H](NC(=O)OC)c5ccccc5F)[nH]4)cc3)cc2[nH]1)C(C)C", "note": "[Example 594]", "EC50": "< 1"}
{"molecule": "COC(=O)N[C@H](C(=O)N1CC2(CC2)C[C@H]1c1nc2ccc(C#Cc3ccc(-c4cnc([C@@H]5CCCN5C(=O)[C@H](NC(=O)OC)c5cccc(Cl)c5)[nH]4)cc3)cc2[nH]1)C(C)C", "note": "[Example 665]", "EC50": "< 1"}
{"molecule": "COC(=O)N[C@H](C(=O)N1CC2(CC2)C[C@H]1c1nc2ccc(C#Cc3ccc(-c4cnc([C@@H]5CCCN5C(=O)[C@H](NC(=O)OC)[C@H](C)c5ccccc5)[nH]4)cc3)cc2[nH]1)C(C)C", "note": "[Example 604]", "EC50": "> 10"}
